Where two headings read alike, the source gives them in different places.
Assays:
NS3-NS4A protease = target: T1, NS3-NS4A protease (Hepatitis C virus genotype 1a, UniProt P27958); test: NS3-NS4A protease assay (NS3 inhibition assay, RETS1 substrate), Section B; type: biochemical; conditions: read-out: NS3-NS4A IC50
T1 construct: Recombinant E. coli or Baculovirus full-length NS3 was diluted to 3.33 μM with assay buffer; made in house; host or cells: E. coli or baculovirus (BV) system
How it was run: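 Full-length NS3 (E. coli or baculovirus) precomplexed with excess NS4A-2 peptide, run at 2 nM (E. coli) or 3 nM (BV) NS3; compounds pre-incubated 10 min at room temperature before RETS1 substrate. Fluorescence (ex 335/em 495 nm) read kinetically 30 min; IC50 from four-parameter fit, converted to Ki via Ki=IC50/(1+[S]/Km).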

[1] = tested on: HCV sub-genomic replicon, GS4.3; test: Quantitation by ELISA of NPTII in the HCV sub-genomic replicon, GS4.3, Section B; type: cell-based; conditions: Hepatitis C virus, read-out: Replicon EC50
Source text: Quantitation by ELISA of the Selectable Marker Protein, Neomycin Phosphotransferase II (NPTII) in the HCV Sub-Genomic Replicon, GS4.3
The HCV sub-genomic replicon (1377/NS3-3′, accession No. AJ242652), stably maintained in HuH-7 hepatoma cells, was created by Lohmann et al. Science 285: 110-113 (1999). The replicon-containing cell culture, designated GS4.3, was obtained from Dr. Christoph Seeger of the Institute for Cancer Research, Fox Chase Cancer Center, Philadelphia, Pa.
GS4.3 cells were maintained at 37° C., 5% CO2, in DMEM (Gibco 11965-092) supplemented with L-glutamine 200 mM (100×) (Gibco25030-081), non-essential amino acids (NEAA)(Biowhittaker 13-114E), heat-inactivated (HI) Fetal Bovine Serum(FBS)(Hyclone SH3007.03) and 750 μg/ml geneticin (G418)(Gibco 10131-035). Cells were sub-divided 1:3 or 4 every 2-3 days.
24 hours prior to the assay, GS4.3 cells were collected, counted, and plated in 96-well plates (Costar 3585) at 7500 cells/well in 100 μl standard maintenance medium (above) and incubated in the conditions above. To initiate the assay, culture medium was removed, cells were washed once with PBS (Gibco 10010-023) and 90 μl Assay Medium (DMEM, L-glutamine, NEAA, 10% HI FBS, no G418) was added. Inhibitors were made as a 10× stock in Assay Medium, (3-fold dilutions from 10 μM to […] final concentration, final DMSO concentration 1%), 10 μl were added to duplicate wells, plates were rocked to mix, and incubated as above for 72 h.
An NPTII ELISA kit was obtained from AGDIA, Inc. (Compound direct ELISA test system for Neomycin Phosphotransferase II, PSP 73000/4800). Manufacturer's instructions were followed, with some modifications. 10×PEB-1 lysis buffer was made up to include 500 μM PMSF (Sigma P7626, 50 mM stock in isopropanol). After 72 h incubation, cells were washed once with PBS and 150 μl PEB-1 with PMSF was added per well. Plates were agitated vigorously for 15 minutes, room temperature, then frozen at −70° C. Plates were thawed, lysates were mixed thoroughly, and 100 μl were applied to an NPTII Elisa plate. A standard curve was made. Lysate from DMSO-treated control cells was pooled, serially diluted with PEB-1 with PMSF, and applied to duplicate wells of the ELISA plate, in a range of initial lysate amount of 150u1-2.5 ul. In addition, 100 μl buffer alone was applied in duplicate as a blank. Plates were sealed and gently agitated at room temperature for 2 h. Following capture incubation, the plates were washed 5×300 μl with PBS-T (0.5% Tween-20, PBS-T was supplied in the ELISA kit). For detection, a 1× dilution of enzyme conjugate diluent MRS-2 (5×) was made in PBS-T, into which 1:100 dilutions of enzyme conjugates A and B were added, as per instructions. Plates were resealed, and incubated with agitation, covered, room temperature, for 2 h. The washing was then repeated and 100 μl of room temperature TMB substrate was added. After approximately 30 minutes incubation (room temperature, agitation, covered), the reaction was stopped with 50 μl 3M sulfuric acid. Plates were read at 450 nm on a Molecular Devices Versamax plate reader.
Inhibitor effect was expressed as a percentage of DMSO-treated control signal, and inhibition curves were calculated using a 4-parameter equation: y=A+((B−A)/(1+((C/x)^D))), where C is half-maximal activity or EC50.

T1 sequence (P27958 1027-1657): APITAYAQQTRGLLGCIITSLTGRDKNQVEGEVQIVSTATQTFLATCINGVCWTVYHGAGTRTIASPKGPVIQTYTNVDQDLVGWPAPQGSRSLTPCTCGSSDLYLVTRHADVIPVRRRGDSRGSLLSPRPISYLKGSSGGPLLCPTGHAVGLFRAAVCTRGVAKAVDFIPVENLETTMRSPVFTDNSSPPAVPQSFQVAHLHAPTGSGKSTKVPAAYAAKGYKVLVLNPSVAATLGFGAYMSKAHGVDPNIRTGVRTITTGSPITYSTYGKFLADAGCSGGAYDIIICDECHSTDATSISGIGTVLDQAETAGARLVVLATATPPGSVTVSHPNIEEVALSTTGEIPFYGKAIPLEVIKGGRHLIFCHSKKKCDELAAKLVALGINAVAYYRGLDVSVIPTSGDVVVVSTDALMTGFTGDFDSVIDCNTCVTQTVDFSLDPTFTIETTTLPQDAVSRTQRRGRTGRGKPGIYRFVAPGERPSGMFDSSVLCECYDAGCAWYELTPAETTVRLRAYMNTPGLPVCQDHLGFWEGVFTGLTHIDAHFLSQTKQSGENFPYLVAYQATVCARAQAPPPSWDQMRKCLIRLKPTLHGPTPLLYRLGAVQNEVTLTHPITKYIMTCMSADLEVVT

SMILES	IC50 (NS3-NS4A protease) [µM]	EC50 ([1]; GS4.3 cells, 72 h incubation) [µM]	EC50 ([1]; 72 h) [µM]
CC(C)(C)OC(=O)N[C@H]1CCCCC/C=C\[C@@H]2C[C@@]2(C(=O)NS(=O)(=O)C2CC2)NC(=O)[C@@H]2C[C@@H](NC(=O)N3Cc4ccccc4C3)CN2C1=O [AR00304008, (1S,4R,6S,14S,18R)-{4-Cyclopropanesulfonylaminocarbonyl-18-[(1,3-dihydro-isoindole-2-carbonyl)-amino]-2,15-dioxo-3,16-diaza-tricyclo[14.3.0.0^4,6]nonadec-7-en-14-yl}-carbamic acid tert-butyl ester]	< 0.1	< 0.1	
CC(C)(C)OC(=O)N[C@H]1CCCCC/C=C\[C@@H]2C[C@@]2(C(=O)NS(=O)(=O)C2CC2)NC(=O)[C@@H]2C[C@@H](OC(=O)N3Cc4ccc(O)cc4C3)CN2C1=O [AR00364936, (1S,4R,6S,14S,18R)-5-Hydroxy-1,3-dihydro-isoindole-2-carboxylic acid 14-tert-butoxycarbonylamino-4-cyclopropanesulfonylaminocarbonyl-2,15-dioxo-3,16-diaza-tricyclo[14.3.0.0^4,6]nonadec-7-en-18-yl ester]	< 0.1	< 1	
CC(C)Nc1nc(-c2ccc3c(c2)CN(C(=O)O[C@@H]2C[C@H]4C(=O)N[C@]5(C(=O)NS(=O)(=O)C6CC6)C[C@H]5/C=C\CCCCC[C@H](NC(=O)OC(C)(C)C)C(=O)N4C2)C3)cs1 [AR00365019, (1S,4R,6S,14S,18R)-5-(2-Isopropylamino-thiazol-4-yl)-1,3-dihydro-isoindole-2-carboxylic acid 14-tert-butoxycarbonylamino-4-cyclopropanesulfonylaminocarbonyl-2,15-dioxo-3,16-diaza-tricyclo[14.3.0.0^4,6]nonadec-7-en-18-yl ester]	< 0.1	< 0.1	
Cc1ccc(S(=O)(=O)NC(=O)[C@@]23C[C@H]2/C=C\CCCCC[C@H](NC(=O)OC(C)(C)C)C(=O)N2C[C@H](OC(=O)N4CCc5ccccc5C4)C[C@H]2C(=O)N3)cc1 [AR00320549, (1S,4R,6S,14S,18R)-3,4-Dihydro-1H-isoquinoline-2-carboxylic acid 14-tert-butoxycarbonylamino-2,15-dioxo-4-(toluene-4-sulfonylaminocarbonyl)-3,16-diaza-tricyclo[14.3.0.0^4,6]nonadec-7-en-18-yl ester]	< 0.1		< 0.1
CC(C)(C)OC(=O)N[C@H]1CCCCC/C=C\[C@@H]2C[C@@]2(C(=O)NS(=O)(=O)C2CC2)NC(=O)[C@@H]2C[C@@H](OC(=O)N3Cc4ccc(Cl)cc4C3)CN2C1=O [AR00320119, (1S,4R,6S,14S,18R)-5-Chloro-1,3-dihydro-isoindole-2-carboxylic acid 14-tert-butoxycarbonylamino-4-cyclopropanesulfonylaminocarbonyl-2,15-dioxo-3,16-diaza-tricyclo[14.3.0.0^4,6]nonadec-7-en-18-yl ester]	< 0.1	< 0.1	
CC(C)(C)OC(=O)N[C@H]1CCCCC/C=C\[C@@H]2C[C@@]2(C(=O)NS(=O)(=O)c2ccc(C#N)cc2)NC(=O)[C@@H]2C[C@@H](OC(=O)N3Cc4ccccc4C3)CN2C1=O [AR00334248, (1S,4R,6S,14S,18R)-1,3-Dihydro-isoindole-2-carboxylic acid 14-tert-butoxycarbonylamino-4-(4-cyano-benzenesulfonylaminocarbonyl)-2,15-dioxo-3,16-diaza-tricyclo[14.3.0.0^4,6]nonadec-7-en-18-yl ester]	< 0.1	< 1	
O=C(NC1CCCC1)N[C@H]1CCCCC/C=C\[C@@H]2C[C@@]2(C(=O)NS(=O)(=O)C2CC2)NC(=O)[C@@H]2C[C@@H](NC(=O)N3Cc4ccccc4C3)CN2C1=O [AR00304014, (1S,4R,6S,14S,18R)-1,3-Dihydro-isoindole-2-carboxylic acid [14-(3-cyclopentyl-ureido)-4-cyclopropanesulfonylaminocarbonyl-2,15-dioxo-3,16-diaza-tricyclo[14.3.0.0^4,6]nonadec-7-en-18-yl]-amide]	< 0.1	< 0.1	
O=C(NC1CCCC1)N[C@H]1CCCCC/C=C\[C@@H]2C[C@@]2(C(=O)NS(=O)(=O)C2CC2)NC(=O)[C@@H]2C[C@@H](OC(=O)N3Cc4ccccc4C3)CN2C1=O [AR00304082, (1S,4R,6S,14S,18R)-1,3-Dihydro-isoindole-2-carboxylic acid 14-(3-cyclopentyl-ureido)-4-cyclopropanesulfonylaminocarbonyl-2,15-dioxo-3,16-diaza-tricyclo[14.3.0.0^4,6]nonadec-7-en-18-yl ester]	< 0.1	< 0.1	
O=C(N[C@H]1CCCCCC=C[C@@H]2C[C@@]2(C(=O)O)NC(=O)[C@@H]2C[C@@H](OC(=O)N3CCc4cccc(C(F)(F)F)c4C3)CN2C1=O)OC1CCCC1 [AR00304075, (1S,4R,6S,14S,18R)-14-Cyclopentyloxycarbonylamino-2,15-dioxo-18-(8-trifluoromethyl-3,4-dihydro-1H-isoquinoline-2-carbonyloxy)-3,16-diaza-tricyclo[14.3.0.0^4,6]nonadec-7-ene-4-carboxylic acid]	< 1	< 10	
COCC1c2cccc(F)c2CCN1C(=O)O[C@@H]1CC2C(=O)N[C@]3(C(=O)NS(=O)(=O)C4CC4)C[C@H]3/C=C\CCCCC[C@H](NC(=O)OC(C)(C)C)C(=O)N2C1 (stereo partly drawn) [AR00365193, (1S,4R,6S,14S,18R)-5-Fluoro-1-methoxymethyl-3,4-dihydro-1H-isoquinoline-2-carboxylic acid 14-tert-butoxycarbonylamino-4-cyclopropanesulfonylaminocarbonyl-2,15-dioxo-3,16-diaza-tricyclo[14.3.0.0^4,6]nonadec-7-en-18-yl ester]	< 0.1	< 0.1	
CC(C)(C)OC(=O)N[C@H]1CCCCC/C=C\[C@@H]2C[C@@]2(C(=O)NS(=O)(=O)c2ccc([N+](=O)[O-])cc2)NC(=O)[C@@H]2C[C@@H](OC(=O)N3Cc4ccccc4C3)CN2C1=O [AR00334249, (1S,4R,6S,14S,18R)-1,3-Dihydro-isoindole-2-carboxylic acid 14-tert-butoxycarbonylamino-4-(4-nitro-benzenesulfonylaminocarbonyl)-2,15-dioxo-3,16-diaza-tricyclo[14.3.0.0^4,6]nonadec-7-en-18-yl ester]	< 0.1	< 1	
CC(C)(C)OC(=O)N[C@H]1CCCCC/C=C\[C@@H]2C[C@@]2(C(=O)NS(=O)(=O)C2CC2)NC(=O)[C@@H]2C[C@@H](NC(=O)N3CCc4ccccc4C3)CN2C1=O [AR00287266, (is, 4R, 6S, 14S, 18R)-{4-Cyclopropanesulfonylaminocarbonyl-18-[(3,4-dihydro-1H-isoquinoline-2-carbonyl)-amino]-2,15-dioxo-3,16-diaza-tricyclo[14.3.0.0^4,6]nonadec-7-en-14-yl}-carbamic acid tert-butyl ester]	< 0.1	< 1	
CC1CN(C(=O)O[C@@H]2C[C@H]3C(=O)N[C@]4(C(=O)NS(=O)(=O)C5CC5)C[C@H]4/C=C\CCCCC[C@H](NC(=O)OC(C)(C)C)C(=O)N3C2)Cc2ccccc21 (stereo partly drawn) [AR00312026, (1S,4R,6S,14S,18R)-4-Methyl-3,4-dihydro-1H-isoquinoline-2-carboxylic acid 14-tert-butoxycarbonylamino-4-cyclopropanesulfonylaminocarbonyl-2,15-dioxo-3,16-diaza-tricyclo[14.3.0.0^4,6]nonadec-7-en-18-yl ester]	< 0.1	< 0.1	

Source: US7491794B2, “Macrocyclic compounds as inhibitors of viral replication” (Intermune, Inc., priority 2003, dated 2009)
